Reference: patent US20050197338A1, “Substituted pyrazole urea compounds for the treatment of inflammation” (priority 2003, published 2005)

Target: T1, human IKK-2 (rhIKK-2 homodimer) (Homo sapiens, UniProt O14920)
T1 construct: FLAG (DYKDDDDKD) (C); made in house; host or cells: insect cells (baculovirus, pFastBac)
T1 sequence (O14920 1-756): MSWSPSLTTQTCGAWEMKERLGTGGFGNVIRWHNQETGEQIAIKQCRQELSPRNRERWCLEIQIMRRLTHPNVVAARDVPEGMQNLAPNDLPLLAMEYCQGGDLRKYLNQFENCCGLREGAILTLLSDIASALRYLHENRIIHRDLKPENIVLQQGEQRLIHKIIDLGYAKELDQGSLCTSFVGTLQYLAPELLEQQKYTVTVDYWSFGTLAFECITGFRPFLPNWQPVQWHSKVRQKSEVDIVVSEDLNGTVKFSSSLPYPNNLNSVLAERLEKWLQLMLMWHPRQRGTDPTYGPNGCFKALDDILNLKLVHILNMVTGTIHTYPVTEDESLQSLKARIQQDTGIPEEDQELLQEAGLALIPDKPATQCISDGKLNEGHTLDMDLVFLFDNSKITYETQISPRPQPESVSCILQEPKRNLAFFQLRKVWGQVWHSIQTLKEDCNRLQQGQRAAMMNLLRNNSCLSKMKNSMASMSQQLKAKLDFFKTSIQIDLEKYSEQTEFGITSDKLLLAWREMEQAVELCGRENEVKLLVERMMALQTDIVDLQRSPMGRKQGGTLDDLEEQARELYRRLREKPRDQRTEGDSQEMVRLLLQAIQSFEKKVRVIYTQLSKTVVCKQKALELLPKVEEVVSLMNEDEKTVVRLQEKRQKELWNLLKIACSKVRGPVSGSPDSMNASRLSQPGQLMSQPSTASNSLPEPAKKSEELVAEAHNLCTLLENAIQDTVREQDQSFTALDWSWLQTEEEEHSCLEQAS
Assay: IKK-2 Resin Enzyme Assay (Human IKK-2 Enzyme Assay)
Format: biochemical
Conditions: human IKK-2, resin enzyme assay; read-out: IC50 (μM) hIKK-2
Outline: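 C-terminally FLAG-tagged human IKK-2 homodimer, baculovirus-expressed in insect cells and anti-FLAG purified. Reaction mix: 5 μM biotinylated IκBα peptide (Ser32/Ser36 region), 1 μM ATP with [γ-33P]ATP, 2 mM MgCl2, 2 mM MnCl2, 10 mM NaF, 1 mM DTT, 25 mM HEPES pH 7.6. Incubated 30 min at 25 °C; IC50 derived.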

IC50 [µM]	Compound
1.15	N#Cc1ccc(-c2ccc(-n3cc(NC(N)=O)c(C(N)=O)n3)cc2)cc1 [Example 100, 4-[(aminocarbonyl)amino]-1-(4′-cyano-1,1′-biphenyl-4-yl)-1H-pyrazole-3-carboxamide]
8.07	NC(=O)Nc1cn(-c2ccc(-c3ccccc3)cc2)nc1C(N)=O [Example 101, 4-[(aminocarbonyl)amino]-1-(1,1′-biphenyl-4-yl)-1H-pyrazole-3-carboxamide]
11.4	NC(=O)Nc1cn(-c2ccc(-c3cc4ccccc4[nH]3)cc2)nc1C(N)=O [Example 141, 4-[(aminocarbonyl)amino]-1-[4-(1H-indol-2-yl)phenyl]-1H-pyrazole-3-carboxamide]
4.79	CN(C)CCN(C)C(=O)c1ccc(-c2ccc(-n3cc(NC(N)=O)c(C(N)=O)n3)cc2)cc1F [Example 160, 4-[(aminocarbonyl)amino]-1-(4′-{[[2-(dimethylamino)ethyl](methyl)amino]carbonyl}-3′-fluoro-1,1′-biphenyl-4-yl)-1H-pyrazole-3-carboxamide]
13.7	NC(=O)Nc1cn(-c2ccc(-c3ccc(C(=O)OCc4ccccc4F)c(F)c3)cc2)nc1C(N)=O [Example 162, 2-fluorobenzyl 4′-{3-(aminocarbonyl)-4-[(aminocarbonyl)amino]-1H-pyrazol-1-yl}-3-fluoro-1,1′-biphenyl-4-carboxylate]
16.6	NC(=O)Nc1cn(-c2ccc(-c3ccc(C(=O)OCc4cccc(F)c4)c(F)c3)cc2)nc1C(N)=O [Example 163, 3-fluorobenzyl 4′-{3-(aminocarbonyl)-4-[(aminocarbonyl)amino]-1H-pyrazol-1-yl}-3-fluoro-1,1′-biphenyl-4-carboxylate]
11.3	NC(=O)Nc1cn(-c2ccc(-c3ccc(C(=O)OCc4ccc(F)cc4)c(F)c3)cc2)nc1C(N)=O [Example 164, 4-fluorobenzyl 4′-{3-(aminocarbonyl)-4-[(aminocarbonyl)amino]-1H-pyrazol-1-yl}-3-fluoro-1,1′-biphenyl-4-carboxylate]
0.044	N#CCOc1ccc(F)cc1-c1ccc(-n2cc(NC(N)=O)c(C(N)=O)n2)cc1 [Example 172, 4-[(aminocarbonyl)amino]-1-[2′-(cyanomethoxy)-5′-fluoro-1,1′-biphenyl-4-yl]-1H-pyrazole-3-carboxamide]
0.15	N#CCOc1cc(F)ccc1-c1ccc(-n2cc(NC(N)=O)c(C(N)=O)n2)cc1 [Example 173, 4-[(aminocarbonyl)amino]-1-[2′-(cyanomethoxy)-4′-fluoro-1,1′-biphenyl-4-yl]-1H-pyrazole-3-carboxamide]
3.67	CC(C)(C)OC(=O)COc1cccc(-c2ccc(-n3cc(NC(N)=O)c(C(N)=O)n3)cc2)c1 [Example 174, tert-butyl [(4′-{3-(aminocarbonyl)-4-[(aminocarbonyl)amino]-1H-pyrazol-1-yl}-1,1′-biphenyl-3-yl)oxy]acetate]
0.18	NC(=O)COc1cccc(-c2ccc(-n3cc(NC(N)=O)c(C(N)=O)n3)cc2)c1 [Example 175, 4-[(aminocarbonyl)amino]-1-[3′-(2-amino-2-oxoethoxy)-1,1′-biphenyl-4-yl]-1H-pyrazole-3-carboxamide]
0.86	N#CCCc1cccc(-c2ccc(-n3cc(NC(N)=O)c(C(N)=O)n3)cc2)c1 [Example 186, 4-[(aminocarbonyl)amino]-1-[3′-(2-cyanoethyl)-1,1′-biphenyl-4-yl]-1H-pyrazole-3-carboxamide]
0.821	NC(=O)Nc1cn(-c2ccc(-c3ccc(-c4nnn[nH]4)cc3)cc2)nc1C(N)=O [Example 187, 4-[(aminocarbonyl)amino]-1-[4′-(1H-tetrazol-5-yl)-1,1′-biphenyl-4-yl]-1H-pyrazole-3-carboxamide]
0.237	NC(=O)Nc1cn(-c2ccc(S(=O)(=O)C3CCCCC3)cc2)nc1C(N)=O [Example 192, 1-(3-carbamoyl-1-(4-(cyclohexylsulfonyl)phenyl)-1H-pyrazol-4-yl)urea]
0.15	NC(=O)Nc1cn(-c2ccc(S(=O)(=O)c3ccccc3F)cc2)nc1C(N)=O [Example 194, 1-(1-(4-(2-fluorophenylsulfonyl)phenyl)-3-carbamoyl-1H-pyrazol-4-yl)urea]
0.013	NC(=O)Nc1cn(-c2ccc(S(=O)(=O)c3ccc(F)cc3)cc2)nc1C(N)=O [Example 204, 1-(1-(4-(4-fluorophenylsulfonyl)phenyl)-3-carbamoyl-1H-pyrazol-4-yl)urea]
1.13	NC(=O)Nc1cn(-c2ccc(Sc3ccccn3)cc2)nc1C(N)=O [Example 205, 1-(3-carbamoyl-1-(4-(pyridin-2-ylthio)phenyl)-1H-pyrazol-4-yl)urea]
1.04	COc1ccc(-n2cc(NC(N)=O)c(C(N)=O)n2)cc1Cl [Example 209, 4-[(Aminocarbonyl)amino]-1-(3-chloro-4-methoxyphenyl)-1H-pyrazole-3-carboxamide]
0.322	NC(=O)Nc1cn(-c2ccc(I)cc2)nc1C(N)=O [Example 215, 4-[(aminocarbonyl)amino]-1-(4-iodophenyl)-1H-pyrazole-3-carboxamide]

The next lines start with the compound.

Compound	IC50 [µM]
NC(=O)Nc1cn(-c2ccc(Br)c(C(F)(F)F)c2)nc1C(N)=O [Example 1, 4-[(aminocarbonyl)amino]-1-[4-bromo-3-(trifluoromethyl)phenyl]-1H-pyrazole-3-carboxamide]	0.307
CCOc1cc(-n2cc(NC(N)=O)c(C(N)=O)n2)ccc1Br [Example 3, 4-[(aminocarbonyl)amino]-1-(4-bromo-3-ethoxyphenyl)-1H-pyrazole-3-carboxamide]	1.35
Cc1cc(I)ccc1-n1cc(NC(N)=O)c(C(N)=O)n1 [Example 4, 1-(4-iodo-2-methyl-phenyl)-4-ureido-1H-pyrazole-3-carboxylic acid amide]	2.87
Cc1cc(-c2cccc(O)c2)ccc1-n1cc(NC(N)=O)c(C(N)=O)n1 [Example 5, 4-[(aminocarbonyl)amino]-1-(3′-hydroxy-3-methyl-1,1′-biphenyl-4-yl)-1H-pyrazole-3-carboxamide]	5.09
NC(=O)Nc1cn(-c2ccc(-c3cccc(O)c3)c(Cl)c2)nc1C(N)=O [Example 7, 4-[(aminocarbonyl)amino]-1-(2-chloro-3′-hydroxy-1,1′-biphenyl-4-yl)-1H-pyrazole-3-carboxamide]	0.355
Cc1cc(-n2cc(NC(N)=O)c(C(N)=O)n2)ccc1I [Example 8, 1-(4-iodo-3-methyl-phenyl)-4-ureido-1H-pyrazole-3-carboxylic acid amide]	0.0676
CNC(=O)Nc1cn(-c2cccc(Br)c2)nc1C(N)=O [Example 15, 1-(3-bromophenyl)-4-{[(methylamino)carbonyl]amino}-1H-pyrazole-3-carboxamide]	8.05
CNC(=O)Nc1cn(-c2ccc(Br)cc2)nc1C(N)=O [Example 16, 1-(4-bromophenyl)-4-{[(methylamino)carbonyl]amino}-1H-pyrazole-3-carboxamide]	3.1
NC(=O)Nc1cn(-c2ccc(Br)cc2)nc1C(N)=O [Example 19, 1-(1-(4-bromophenyl)-3-carbamoyl-1H-pyrazol-4-yl)urea]	0.31
NC(=O)Nc1cn(-c2cccc(-c3ccc(F)cc3O)c2)nc1C(N)=O [Example 92, 4-[(aminocarbonyl)amino]-1-(4′-fluoro-2′-hydroxy-1,1′-biphenyl-3-yl)-1H-pyrazole-3-carboxamide]	6.61
NC(=O)Nc1cn(-c2cccc(-c3cc(F)ccc3O)c2)nc1C(N)=O [Example 93, 4-[(aminocarbonyl)amino]-1-(5′-fluoro-2′-hydroxy-1,1′-biphenyl-3-yl)-1H-pyrazole-3-carboxamide]	3.1
N#CCOc1ccc(F)cc1-c1cccc(-n2cc(NC(N)=O)c(C(N)=O)n2)c1 [Example 94, 4-[(aminocarbonyl)amino]-1-[2′-(cyanomethoxy)-5′-fluoro-1,1′-biphenyl-3-yl]-1H-pyrazole-3-carboxamide]	0.22
NC(=O)Nc1cn(-c2ccc(-c3ccc(C(=O)O)c(F)c3)cc2)nc1C(N)=O [Example 97, 4′-{3-(aminocarbonyl)-4-[(aminocarbonyl)amino]-1H-pyrazol-1-yl}-3-fluoro-1,1′-biphenyl-4-carboxylic acid]	0.14
NC(=O)Nc1cn(-c2ccc(-c3ccc(F)cc3O)cc2)nc1C(N)=O [Example 98, 4-[(aminocarbonyl)amino]-1-(4′-fluoro-2′-hydroxy-1,1′-biphenyl-4-yl)-1H-pyrazole-3-carboxamide]	1.04
NC(=O)Nc1cn(-c2ccc(-c3cc(F)ccc3O)cc2)nc1C(N)=O [Example 99, 4-[(aminocarbonyl)amino]-1-(5′-fluoro-2′-hydroxy-1,1′-biphenyl-4-yl)-1H-pyrazole-3-carboxamide]	0.75
